Source: US20120258956A1, “USE OF A SPIROLIDE, ANALOGUES AND DERIVATIVES FOR TREATING AND/OR PREVENTING PATHOLOGICAL CONDITIONS LINKED TO THE TAU AND BETA-AMYLOID PROTEINS” (priority 2009, published 2012)

Assays:
[1] = administered intraperitoneally, rat and mouse; cited from earlier work
[2] = tested on: tau phosphorylated on Thr212 and Ser214; assay: Western blot of phosphorylated tau (AT100 antibody) in 3xTg-AD cortical neuronal cultures; assay type: cell-based, mouse; settings: 3xTg cultures, FIG. 3B, p<0.005, n=3
Text: (§1) In order to carry out the experiments of the present invention, either an in vitro cortical neuronal model with simultaneous overexpression of tau and β-amyloid, obtained from a model of Alzheimer's disease in triple-transgenic (3×Tg-AD or 3×Tg) mice, obtainable via the detailed procedure in the international patent application WO2003/053136 and provided by the title holders of this application, or an in vitro cortical neuronal model obtained from non-transgenic (No-Tg) mice.
(§2) For the determination of the effect of the spirolide compound of the present invention on the expression of tau and beta amyloid, the Western blot techniques were used. […] For Western blot studies, protein expression was evaluated using 6E10 anti-β-amyloid primary antibodies at a dilution of 1:500, AT8 anti-Tau (tau phosphorylated on Ser202, dilution 1:1000) and AT100 anti-tau (tau phosphorylated on Thr 212 and Ser214, dilution 1:1000).
(§3) For Western blot assays, neuronal cultures treated with the spirolide of the present invention were washed with cold phosphate buffer and lysed in 50 mM Tris-HCl buffer (pH 7.4) containing 150 mM NaCl, 1 mM EDTA, 1% Triton X-100, 2 mM DTT, 2.5 mM PMSF, 40 mg/ml aprotinin, 4 mg/ml leupeptin, 5 mM NaF, 1 mM Na3VO4, 1 mg/ml pepstatin A and 1 mg/ml benzamidine. Total protein concentration was determined by Bradford's method using bovine albumin as standard. […]

[3] = tested on: tau phosphorylated on Ser202; assay: Western blot of phosphorylated tau (AT8 antibody) in 3xTg-AD cortical neuronal cultures; assay type: cell-based, mouse; settings: for levels of tau phosphorylated on Serine 202: day 3 to day 10 in vitro, untreated 3xTg 129.1
Text: as §1
The administration of 50 nM spirolide is equivalent to approximately 37 μg spirolide per kg of body weight. Intraperitoneal administration of an amount higher than 37 μg per kg body weight to a mouse reduced the levels of these proteins but produced toxic effects in the animal (Santokh et al., 2003. NeuroToxicology, 24: 593-604), however, the oral toxicity of spirolides is 1 mg per kg body weight.
For the determination of the effect of the spirolide compound of the present invention on the expression of tau and beta amyloid, the Western blot techniques were used. The primary neuronal cultures were incubated with the spirolide compound of the present invention added to the culture medium for a specific time. For the concentration of 50 nM, the treatment times were between 7 and 10 days in vitro and for other concentrations (0.1 to 25 nM) between 3 and 10 days in vitro. The cells were then processed following the usual protocols for Western blot. For Western blot studies, protein expression was evaluated using 6E10 anti-β-amyloid primary antibodies at a dilution of 1:500, AT8 anti-Tau (tau phosphorylated on Ser202, dilution 1:1000) and AT100 anti-tau (tau phosphorylated on Thr 212 and Ser214, dilution 1:1000).
For Western blot assays, neuronal cultures treated with the spirolide of the present invention were washed with cold phosphate buffer and lysed in 50 mM Tris-HCl buffer (pH 7.4) containing 150 mM NaCl, 1 mM EDTA, 1% Triton X-100, 2 mM DTT, 2.5 mM PMSF, 40 mg/ml aprotinin, 4 mg/ml leupeptin, 5 mM NaF, 1 mM Na3VO4, 1 mg/ml pepstatin A and 1 mg/ml benzamidine. Total protein concentration was determined by Bradford's method using bovine albumin as standard. Aliquots of cellular lysates containing 20 μg total protein were loaded in loading buffer (50 mM Tris-HCl, 100 mM dithiothreitol, 2% SDS, 20% glycerol, 0.05% bromophenol blue, pH 6.8), the proteins were separated by electrophoresis and transferred to PVDF membranes. The membranes were incubated with the primary antibodies, washed and then incubated with a secondary antibody bound to HRP. Immunoreactivity was detected by chemiluminescence. The same membranes were reincubated with an anti-β-actin primary antibody to carry out data correction for the sample protein content.

[4] = tested on: cortical neurones; assay: Alamar Blue cellular viability assay in primary cortical cultures; assay type: cell-based, mouse; settings: 72 hours in culture
Text: as §1
Primary cortical cultures in the embodiment of the invention were obtained from 3×Tg-AD mouse embryos of 15-17 days gestation and the wild cultures were obtained from non 3×Tg control mouse embryos of the same strain. The effect of the compounds used in this invention on cellular viability was estimated by a fluorescence assay using the Alamar Blue viability indicator. To carry out the assay, primary cortical cultures seeded on 96-well plates were used. The neuronal cells were incubated in the culture medium with the spirolide of the present invention at different concentrations dissolved in dimethyl sulfoxide and the effect on neuronal viability was determined at different treatment times in vitro. The maximum concentration of 13-desmethyl spirolide evaluated was 100 nM and the concentration of Alamar blue was 10%. The volume of the reaction used was 200 μl. Fluorescence was measured at wavelengths of 530 nm (excitation) and 590 nm (emission).

[5] = tested on: β-amyloid; assay: Western blot of intracellular β-amyloid (6E10 antibody) in 3xTg-AD cortical neuronal cultures; assay type: cell-based, mouse
Text: as §1, §2, §3

[6] = tested on: total tau; assay: Western blot of total basal tau (Tau46 antibody) in control non-transgenic cortical neurones; assay type: cell-based, mouse; settings: 100 nM
Experimental: The effect of spirolide on basal phosphorylation of tau was determined by Western blot techniques. An in vitro cortical neuronal model obtained from non-transgenic mice was used. Neuronal culture and sample processing was carried out in the same way as described in the previous example. The data obtained were corrected for the β-actin content of the samples.

[7] = oral; cited from earlier work

With 13-desmethyl spirolide as the substance, how does the “concentration causing toxic effects” value [1] read?
The value was 37-40 μg/kg body weight.

What about the “tau phosphorylation (AT100, Thr212 and Ser214; Western blot quantification)” value [2] of the same substance?
The value was “significant reduction”.

What about the “hyperphosphorylation of the tau protein” value ([3]; 0.017 μg per kg body weight (approx. 0.023 nM)) of the same substance?
The value was “continued to be reduced”.

And the “levels of tau phosphorylated on Serine 202” value (from here on “levels of tau phosphorylated”) ([3]; 3xTg cultures, 0.1 nM)?
The value was 129.8 ± 1.7 % control.

What about the “levels of tau phosphorylated” value ([3]; 3xTg cultures, 0.5 nM) of the same substance?
The value was 61.7 ± 12.4 % control.

And the “levels of tau phosphorylated” value ([3]; 3xTg cultures, 10 nM)?
The value was 70.3 ± 4.7 % control.

And the “levels of tau phosphorylated” value ([3]; 3xTg cultures, 25 nM)?
Its value is 89.1 ± 2.2 % control.

And the “tau phosphorylation (AT8, Ser202; Western blot quantification)” value ([3]; 3xTg cultures, FIG. 2B, p<0.05, n=3)?
The value was “significant reduction”.

What about the “Viability of cortical neurones” value ([4]; 2.5 nM) of the same substance?
Its value is 104.3 ± 1.2 % control.

What about the “Viability of cortical neurones” value ([4]; 5 nM) of the same substance?
Its value is 104 ± 1.3 % control.

What about the “Viability of cortical neurones” value ([4]; 10 nM) of the same substance?
The value was 104.3 ± 1.4 % control.

What about the “Viability of cortical neurones” value ([4]; 25 nM) of the same substance?
Its value is 104.3 ± 0.7 % control.

And the “Viability of cortical neurones” value ([4]; 50 nM)?
The value was 103.4 ± 0.5 % control.

What about the “Viability of cortical neurones” value ([4]; 100 nM) of the same substance?
Its value is 102.1 ± 1.5 % control.

And the β-amyloid protein ([5]; 0.5 nM)?
Its β-amyloid protein is “reducing β-amyloid protein”.

And the “overexpression of β-amyloid (Western blot quantification, 6E10)” value ([5]; 3xTg cultures, FIG. 1B, p<0.005 vs untreated transgenic cultures, n=3)?
The value was “significant reduction”.

And the “total basal tau levels in control neurones” value [6]?
Its value is 139.9 ± 27.3 % control.

And the “total basal tau levels in control neurones” value ([6]; listed as spirolide)?
The value was “did not affect”.

And the “toxicity when administered orally” value [7]?
Its value is “not toxic”.
